We go through one substance from patent US20230151065A1, “MULTI-DISULFIDE-BOND LONG-CHAIN PEPTIDE WITH NEURO[…], PHARMACEUTICAL COMPOSITION AND APPLICATION” (priority 2018, published 2023).

Assay [1] concerns PI3K/AKT signaling pathway in cortical neurons after OGD damage. In words: OGD damage of cortical neurons with PI3K inhibitor LY-294002, Western blot of p-AKT and Cleaved caspase-3. In kind it is cell-based, SD rat.
Assay [2] concerns primary fetal rat hippocampal neurons. Briefly: Growth of hippocampal neurons, label-free real time cell analysis (RTCA). It counts as cell-based. To be noted: ABPPk2 4, 20, 100 ng/ml. The procedure:
(1) Primary culture of fetal rat hippocampal neurons: after a rat pregnant for 17 days was anesthetized, a fetal rat was taken out under sterile conditions; the brain of the fetal rat was taken out on ice; the hippocampus was carefully taken out under a dissecting microscope; and the blood vessel membranes were removed. 0.125% trypsin/EDTA was digested at 37° C. for 10 min, and the digestion was stopped by adding the DMEM complete medium containing 10% FBS. Cell debris were removed through centrifugal at 1000 rpm for 5 min; the DMEM complete medium was added to resuspend the cells; the cells were gently blown until a single cell suspension was formed; and the cells were inoculated at an appropriate density on a culture plate (dish) pre-coated with polylysine (PLL) and cultured at 37° C., 5% CO2 incubator. After 4 h, the cells were adhered to the wall; the DMEM complete medium was discarded and replaced with neurobasal medium containing different concentrations of ABPPk2 (the concentrations of ABPPk2 were 4 ng/ml, 20 ng/ml and 100 ng/ml); the neurobasal medium containing 10 ng/ml BDNF was used as the positive control group, and neurobasal was used as the negative control group. […]

Assay [3] has as its system primary cultured SD fetal rat cortical neurons after OGD damage. In words: OGD damage of cortical neurons, ROS content (reactive oxygen detection kit). In kind it is cell-based. To be noted: OGD 2 h, 24 h reoxygenation; ABPPk2 8, 40, 200 ng/ml; obvious dose-effect relationship. The procedure: The suspension was filtered with a 400-mesh screen, centrifuged at 1000 rpm for 5 min, and blown to form the single cell suspension. DMEM high glucose complete medium (containing 10% fetal bovine serum) was inoculated in a culture dish or culture plate pre-coated with polylysine (PLL) to culture in 5% CO2 incubator with saturated humidity at 37° C. After the cells were cultured for 4 h to adhere to the wall, the cells were cultured with neuron culture medium (neurobasal+2% B27) for 3 d to observe the growth of neurons. The culture medium containing cytarabine (the final concentration of cytarabine was 2.5 μg/ml) was substituted with half quantity to culture for 3d to inhibit the growth of glial cells and miscellaneous cells to obtain purely cultured primary cortical nerve cells. The purity of the cortical neurons was identified by immunocytochemical staining as more than 90%. […]
(6) Effect of ABPPk2 on ROS content of cortical neurons after OGD damage: cortical neurons were inoculated in a 6-well plate at 1×10^6 cells/ml; 2 ml of cell suspension was added to each well; and the cortical neurons were cultured to the 7th day. […] The effect of ABPPk2 on the ROS content of the cortical neurons after OGD damage was detected by a reactive oxygen detection kit.

For assay [4] the test system is unchanged. In words: OGD damage of cortical neurons, Western blot of apoptosis-related proteins. It counts as cell-based.
The mark [5] stands for this setting: after OGD and LY-294002 treatment, ABPPk2 high-dose group.
Setting [6] is: after OGD damage, vs OGD group, ABPPk2 at high dose, LY-294002 30 min.
The mark [7] stands for this setting: after OGD damage and treatment with ABPPk2.
The mark [8] stands for this setting: total protein, ABPPk2 medium-dose (40 ng/ml) and high-dose (200 ng/ml) groups vs OGD damage group.

Where no end group is shown, it is not given here.

Take “Cys-Leu-Glu-Ser-Gly-Thr-Ser-Cys-Ile-Pro-Gly-Ala-Gln-His-Asn-Cys-Cys-Ser-Gly-Val-Cys-Val-Pro-Ile-Val-Thr-Ile-Phe-Tyr-Gly-Val-Cys-Tyr (CLESGTSCIPGAQHNCCSGVCVPIVTIFYGVCY; disulfide (positions not given here); not fully specified (bridges); also: three disulfide bonds, pairing not given here) [ABPPk2, 33 amino acid polypeptide isolated from the extract of Achyranthes bidentata Blume, three pairs of disulfide bonds]”: in assay [1] (setting [5]), the “expression of Cleaved caspase-3” value is reported as “significantly down-regulated” and the “expression of p-AKT” value was “significantly up-regulated”. For the same substance, in assay [1] (setting [6]), the “expression of Cleaved caspase-3” value is on record as “significantly down-regulated” and the “expression of p-AKT” value was “significantly up-regulated”. Moreover, the “growth of hippocampal neurons (cell index, RTCA)” value in assay [2] was “can promote the growth of the hippocampal neurons and the extension of neurites”. In addition, in assay [3], the ROS content entry is reported as “can reduce the ROS content”. Further, in assay [4] (setting [7]), the “expression of AIF in mitochondria” value is listed as “significantly up-regulated”, the “expression of AIF in the nucleus” value is “significantly down-regulated”, the “expression of Cyt C in cytoplasma” value is “significantly down-regulated” and the “expression of Cyt C in mitochondria” value is reported as “significantly up-regulated”. Further, the Bcl-2 expression entry in assay [4] (total protein, ABPPk2 high-dose group (200 ng/ml) vs OGD damage group) is “significantly up-regulated”. Besides, in assay [4] (setting [8]), the Bax expression entry is “significantly down-regulated” and the “Cleaved caspase-3 expression” value is listed as “significantly down-regulated”.
